A word on the EC50: it is the concentration at which the effect is half-maximal.

Data on 5 substances can be found in PMC10703884, “Targeting the COMMD4–H2B protein complex in lung cancer” (British Journal of Cancer, 2023).

“Also recorded” adds a separate entry of the source. No end group written: not given here.

Series [1] relates to H2B. As to the kind of experiment: FLAG pull-down, COMMD4-FLAG versus A70K mutant with H2B. The conditions noted are these: compared to COMMD4-FLAG. In kind it is binding. How it is done:
(§1) For siRNA transfections, cells were transfected with negative control or COMMD4 siRNA #2 (CCAUGUCCCUCUCAGCAGA[dT][dT] MISSION® siRNA, Sigma-Aldrich) using RNAiMax (Life Technologies) as previously described and samples were analysed 48 to 72 h post-transfection. The H2B wild-type (FLAG-H2BWT) and mutant (FLAG-H2BMUT1) expression constructs were generated with the 10-amino acid peptide and the corresponding mutant cloned into the expression vector pCDNA3.1/(+)-N-DYK containing an N-terminal FLAG tag and a C-terminal nuclear localisation signal (AAKRVKLDS) (GenScript). A70K FLAG-COMMD4 expression construct was generated by mutating the corresponding COMMD4-FLAG construct to harbour an A70K mutation (GenScript). Cells were mock-transfected, or transfected with FLAG-H2BWT/FLAG-H2BMUT1, or COMMD4-FLAG/A70K with FuGENE® HD (Promega) using the manufacturer’s protocol and analysed 24 h post-transfection.
Co-immunoprecipitations were performed as previously summarised, using ice-cold NP40 buffer. Assays for co-immunoprecipitations were performed at 4 °C from HEK293T, transiently expressing the FLAG-H2B WT or MUT plasmid. Proteins were captured using anti-FLAG M2 Dynabeads (ThermoFisher) and washed three times in NP40 buffer prior to analysis. […]

The test system of series [2] is HBEC3-KT cells. In words: Immunofluorescence γH2AX and MDC1 foci, HBEC3-KT cells. In kind it is cell-based, Human. Conditions: 6 Gy IR, 50 cells per condition, three independent experiments. How it is done: as §1
NSCLC and control cells transfected with siRNA or H2B plasmids were grown in optical glass bottom 96-well plates (Cellvis). Post-treatment, cells were pre-extracted with ice-cold extraction buffer (20 mM HEPES (pH 8), 20 mM NaCl, 5 mM MgCl2, 1 mM ATP, 0.5% NP40), to remove the soluble proteins and processed as previous. […] Images were analysed using the InCarta Image Analysis software (GE Healthcare Life Sciences) where a minimum of 50 nuclei were quantified per experiment. […]

The subject of series [3] is NSCLC cells. As to the kind of experiment: Immunofluorescence γH2AX and MDC1 foci, NSCLC cells. The conditions noted are these: 6 Gy IR, 0.5 to 2 h post-IR, 50 cells per condition, three independent experiments. In kind it is cell-based. How it is done:
as §1
NSCLC and control cells transfected with siRNA or H2B plasmids were grown in optical glass bottom 96-well plates (Cellvis). Post-treatment, cells were pre-extracted with ice-cold extraction buffer (20 mM HEPES (pH 8), 20 mM NaCl, 5 mM MgCl2, 1 mM ATP, 0.5% NP40), to remove the soluble proteins and processed as previous. Images were captured using a Delta Vision PDV microscope 100x/1.42 Oil objective (Applied Precision, Inc). All immunofluorescence figures were assembled using Adobe Photoshop. High-content microscopy was performed using the InCell Analyzer 6500 Imaging System (GE Healthcare Life Sciences). Images were analysed using the InCarta Image Analysis software (GE Healthcare Life Sciences) where a minimum of 50 nuclei were quantified per experiment.
Fig. 4 Induction of DSBs in NSCLC and control cells. a Immunofluorescence staining of H1299 NSCLC cells transfected with control or COMMD4 siRNA #2 and FLAG-H2BWT or FLAG-H2BMUT1 is shown. […]
independent experiments where 50 cells were quantified per condition. γH2AX is shown in […]
mean ± SD from three independent experiments where 50 cells were quantified per condition.

Series [4] concerns HBEC3-KT cells. As to the kind of experiment: Clonogenic cell viability after IR, HBEC3-KT cells. It counts as cell-based, Human. The conditions noted are these: varying IR doses, 7–10 days recovery, three independent experiments. The procedure: (§2) H1299, CRL5889 and H460 cells were cultured in Roswell Park Memorial Institute (RPMI) 1640 medium (Life Technologies) containing 10% foetal bovine serum (Thermo Fisher Scientific). Human bronchial epithelial cells (HBEC3-KT) were maintained in keratinocyte serum-free medium supplemented with epidermal growth factor and bovine pituitary extract (Life Technologies). The histology features and origin of all cell lines used have been previously described. Cell lines were authenticated using STR profiling. Cells were grown in a humidified incubator at 37 °C/5% CO2 atmosphere. All cell lines were verified to be free of mycoplasma contamination.
(§3) Irradiations were done at room temperature using a ^137Cs source (Gammacell 40 Exactor [MDS Nordion]; dose rate 1.1 Gy/min). Phalloidin-Atto 488 was purchased from Sigma-Aldrich and Hoechst 33342 was purchased from Thermo Fisher Scientific.
(§4) For siRNA transfections, cells were transfected with negative control or COMMD4 siRNA #2 (CCAUGUCCCUCUCAGCAGA[dT][dT] MISSION® siRNA, Sigma-Aldrich) using RNAiMax (Life Technologies) as previously described and samples were analysed 48 to 72 h post-transfection. […] Cells were mock-transfected, or transfected with FLAG-H2BWT/FLAG-H2BMUT1, or COMMD4-FLAG/A70K with FuGENE® HD (Promega) using the manufacturer’s protocol and analysed 24 h post-transfection. […]

Series [5] concerns H460, H1299 and CRL5889 NSCLC cells. As to the kind of experiment: Clonogenic cell viability after IR, NSCLC cells. The conditions noted are these: varying IR doses, 7–10 days recovery, three independent experiments, compared to control siRNA or FLAG-H2BMUT1/mock. In kind it is cell-based. The procedure:
as §2, §3, §4

Series [6] relates to HBEC3-KT cells. As to the kind of experiment: Annexin V-FITC / propidium iodide apoptosis, HBEC3-KT cells. In kind it is cell-based, Human. Conditions: flow cytometry, three independent experiments. The procedure: as §1, with “A70K FLAG-COMMD4 expression construct was generated by mutating the corresponding COMMD4-FLAG construct to harbour an A70K mutation (GenScript).” left out
The Annexin V-FITC apoptosis kit (United Bioresearch, ALX-850-020-K101, Enzo Life Sciences, Farmingdale, NY, USA) was used to measure viable and apoptotic cells, as previously described. […] CytExpert 2.0 software was used for data acquisition and analysed using the FlowJo v10 software.
Fig. 5 Induction of mitotic catastrophe and apoptosis in NSCLC cells. a Emerin and phalloidin staining respectively in three NSCLC and control HBEC3-KT cells. […] Asterix (*) denotes *P < 0.05 and ** P < 0.005 from 100 cells counted. […] The live cells were stained with Annexin V-FITC and propidium iodide and analysed by flow cytometer. […]
On the technique in general: A flow cytometer gives signals particle by particle.

Series [7] addresses T1, recombinant GST-COMMD4 (Homo sapiens, UniProt Q9H0A8).
T1 construct: purchased Abnova H00054939-P01
As to the kind of experiment: ELISA, binding of H2B peptide and recombinant COMMD4. Conditions: H2B peptide 10 μg/ml on NeutrAvidin plate 2 h; recombinant GST-COMMD4 at different concentrations 45 min, room temperature; anti-COMMD4 antibody, chemiluminescent substrate. The procedure:
ELISA was performed using NeutrAvidin High Binding Capacity Coated 96-Well Plates (Thermo Scientific, 15507) according to the manufacturer’s instructions. Briefly, to the appropriate well, added 100 μl of H2B peptide at 10 μg/ml for 2 h at room temperature. Washed each well three times with NP40 buffer, blocked the plate overnight with 4% BSA in NP40 buffer and the next day added different concentrations of recombinant GST-COMMD4 as shown, for 45 min at room temperature. Washed each well three times with NP40 buffer and added anti-COMMD4 antibody for 45 min at room temperature followed by the enzyme-linked secondary antibody for 30 min at room temperature followed by detection using SuperSignal ELISA Pico Chemiluminescent Substrate (Thermo Scientific, 37070).

Series [8] in a line: Circular dichroism (CD) of H2B peptides. It counts as physicochemical. Conditions: 0.1 mg/ml peptide, 50% TFE, 10 mM phosphate pH 7.2, 50 mM sodium fluoride, 20 °C, average of five scans. How it is done:
For Circular Dichroism (CD), […] and H2BMUT1 peptides were resuspended at a concentration of 0.1 mg/ml in 50% 2,2,2-Trifluoroethanol (Sigma, T63002) with 10 mM Phosphate Buffer pH 7.2 and 50 mM sodium fluoride. The buffer solutions were filtered and degassed before diluting the peptides. The peptides were loaded into a 1 mm path-length quartz cuvette. CD spectra were measured at 20 °C in the far-UV from 250 to 190 nm with a Jasco J-1500 spectropolarimeter at a 0.1 nm interval with a 20 nm/min scan rate. All CD data represent an average of five scans, and the background was corrected with the buffer-matched diluent. The results were converted to the units of molar ellipticity vs. wavelength.
A general note: Circular dichroism is widely used to follow secondary structure.

For series [9], the system named is COMMD4-H2B interaction. In words: COMMD4 pull-down competition (COMMD4-H2B interaction). In kind it is biochemical. The conditions noted are these: 1 μg (or amount specified) peptide pre-incubated with recombinant COMMD4 (300 ng) 30 min 4 °C, then 1 μg recombinant H2B 30 min 4 °C, immunoblot. The procedure:
300 ng of recombinant GST-COMMD4 (Abnova, H00054939-P01) was incubated with 1 μg of recombinant H2B (NEB, M2505S) in NP40 buffer for 30 min at 4 °C. For competition experiments, 1 μg (or the amount specified) of the N-terminal biotin-tagged H2B peptide (GenScript) was pre-incubated with recombinant COMMD4 for 30 min at 4 °C prior to addition of recombinant H2B. Proteins were captured using Streptavidin Dynabeads (ThermoFisher) or Protein A Dynabeads (ThermoFisher), washed three times in NP40 buffer, resuspended in 4X Leammli sample buffer (250 mM Tris pH 6.8, 8% SDS, […], 0.02% bromophenol blue, 8% β-mercaptoethanol) and immunoblotted with the indicated antibodies.
Fig. 2 In vitro binding of the H2B peptide. a In vitro binding of biotin-tagged H2B 10-amino acid peptide (H2BWTpep) and H2BMUT1pep (mutation of key amino acid) with COMMD4. […] FLAG-H2BWT and FLAG-H2BMUT1 were immunoprecipitated from HEK293T cells and the co-eluting proteins were immunoblotted with antibodies against […] and FLAG.

T1 sequence (Q9H0A8 whole entry): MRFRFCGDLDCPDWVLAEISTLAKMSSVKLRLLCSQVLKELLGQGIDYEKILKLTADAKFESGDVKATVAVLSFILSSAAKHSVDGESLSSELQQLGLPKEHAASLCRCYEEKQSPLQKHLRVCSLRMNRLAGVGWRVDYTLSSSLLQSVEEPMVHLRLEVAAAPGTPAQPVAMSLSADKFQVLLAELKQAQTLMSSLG

As for “A70K COMMD4-FLAG: COMMD4-FLAG construct mutated to harbour an A70K mutation”, in series [1], the “binding with H2B of COMMD4 mutant” value is reported as “showed reduced binding with H2B”.

Take “CCAUGUCCCUCUCAGCAGA[dT][dT] [COMMD4 siRNA, reference compound]”: the “γH2AX and MDC1 (DNA repair) foci” value in series [2] is “exhibited increased DNA repair foci”; in [3], “significantly more γH2AX and MDC1 foci”. For the same substance, the results for the “sensitivity to ionising radiation (clonogenic viability)” value in series [4] and in series [5] were “neither hypersensitive to IR” and “hypersensitive to IR compared to control siRNA treated cells”, respectively.

“FLAG-H2BMUT1: corresponding mutant cloned into expression vector containing an N-terminal FLAG tag and a C-terminal nuclear localisation signal ({FLAG}-SFVNDKFERIAAKRVKLDS)”: the induction of apoptosis result in [6] was “no significant induction of apoptosis”. Moreover, the “γH2AX and MDC1 (DNA repair) foci” value in series [3] is “not FLAG-H2BMUT1, displayed a similar phenotype to COMMD4 siRNA depleted cells and had significantly more DNA repair foci”.

Regarding SFVNDIFERI [H2BWTpep], the EC50 in series [7] was determined as 70 nM.

As to SFVNDKFERI [H2BMUT1pep], in series [8] (1 mm path length), the peak ellipticity maximum was 190 nm and the peak minimum is on record as 202 nm. In addition, in series [8], the “secondary structure / helicity” value was “possesses little helical structure even in 50% TFE”. Besides, the “effect on COMMD4-H2B interaction” value in [9] is on record as “did not affect the COMMD4-H2B interaction; also recorded: maintains the COMMD4-H2B interaction”.
